# Data: US12552783B2, “Modulators of proteolysis and associated methods of use” (Arvinas Operations, Inc., priority 2018, dated 2026)
# Target: KRas (Homo sapiens, UniProt P01116, G12C)
# Experiment: KRas degradation in NCI-H2030 cells by Western blot, normalized to GAPDH (data of Table 14)
# Type: cell-based
# Parameters: host or cells: NCI-H2030
# Details: for Dmax: NCI-H2030
# How it was run: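 KRas/GAPDH band ratio vs DMSO lane gives % degradation; values under 25% were estimated visually, the rest quantitated. Cells are G12C homozygous, serum-free for 24 h, then dosed at 0.3/1/3 μM (0.1% DMSO). VHL-based compounds 24 h, others 72 h.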
SMILES,"Percent Degradation at Indicated Concentration (μM) (H2030, 0.3 μM)","Percent Degradation at Indicated Concentration (μM) (H2030, 1 μM)","Percent Degradation at Indicated Concentration (μM) (H2030, 3 μM)",Dmax [%],"Percent Degradation at Indicated Concentration (μM) (H2030 cells, 0.3 μM)","Percent Degradation at Indicated Concentration (μM) (H2030 cells, 1 μM)","Percent Degradation at Indicated Concentration (μM) (H2030 cells, 3 μM)"
Cc1ncsc1-c1ccc([C@H](C)NC(=O)[C@@H]2C[C@@H](O)CN2C(=O)[C@@H](NC(=O)COCCOCCOCCOCC/C=C/C(=O)N2CCN(c3nc(NCCC(=O)N(C)C)nc4c(F)c(-c5cc(O)cc6ccccc56)c(Cl)cc34)CC2)C(C)(C)C)cc1 [compound 366],C (Percent Degradation: C ≤ 35),C (Percent Degradation: C ≤ 35),C (Percent Degradation: C ≤ 35),≤ 35,–,–,–
"Cc1ncsc1-c1ccc([C@H](C)NC(=O)[C@@H]2C[C@@H](O)CN2C(=O)[C@@H](NC(=O)COCCOCC/C=C/C(=O)N2CCN(c3ncnc4c(F)c(-c5cc(O)cc6ccccc56)c(Cl)cc34)CC2)C(C)(C)C)cc1 [compound 373, (2S,4R)-1-((2S)-2-(2-(2-(((E)-5-(4-(6-chloro-8-fluoro-7-(3-hydroxynaphthalen-1-yl)quinazolin-4-yl)piperazin-1-yl)-5-oxopent-3-en-1-yl)oxy)ethoxy)acetamido)-3,3-dimethylbutanoyl)-4-hydroxy-N-((S)-1-(4-(4-methylthiazol-5-yl)phenyl)ethyl)pyrrolidine-2-carboxamide]",C (Percent Degradation: C ≤ 35),C (Percent Degradation: C ≤ 35),C (Percent Degradation: C ≤ 35),≤ 35,–,–,–
"Cc1ncsc1-c1ccc([C@H](C)NC(=O)[C@@H]2C[C@@H](O)CN2C(=O)[C@@H](NC(=O)COCCOCCOCCOCC/C=C/C(=O)N2CCN(c3ncnc4c(F)c(-c5cc(O)cc6ccccc56)c(Cl)cc34)CC2)C(C)(C)C)cc1 [compound 375, (2S,4R)-1-((2S,E)-2-(tert-butyl)-20-(4-(6-chloro-8-fluoro-7-(3-hydroxynaphthalen-1-yl)quinazolin-4-yl)piperazin-1-yl)-4,20-dioxo-6,9,12,15-tetraoxa-3-azaicos-18-enoyl)-4-hydroxy-N-((S)-1-(4-(4-methylthiazol-5-yl)phenyl)ethyl)pyrrolidine-2-carboxamide]",C (Percent Degradation: C ≤ 35),C (Percent Degradation: C ≤ 35),C (Percent Degradation: C ≤ 35),≤ 35,–,–,–
"COc1cc(-c2scnc2C)ccc1[C@H](C)NC(=O)[C@@H]1C[C@@H](O)CN1C(=O)[C@@H](c1cc(OCCOCCOCCOCCOCCN(C)C(=O)CCNc2nc(N3CCN(C(C)=O)CC3)c3cc(Cl)c(-c4cc(O)cc5ccccc45)c(F)c3n2)no1)C(C)C [compound 391, (2S,4R)-1-((2R)-2-(3-((18-((4-(4-acetylpiperazin-1-yl)-6-chloro-8-fluoro-7-(3-hydroxynaphthalen-1-yl)quinazolin-2-yl)amino)-15-methyl-16-oxo-3,6,9,12-tetraoxa-15-azaoctadecyl)oxy)isoxazol-5-yl)-3-methylbutanoyl)-4-hydroxy-N-((S)-1-(2-methoxy-4-(4-methylthiazol-5-yl)phenyl)ethyl)pyrrolidine-2-carboxamide]",C (Percent Degradation: C ≤ 35),C (Percent Degradation: C ≤ 35),C (Percent Degradation: C ≤ 35),≤ 35,–,–,–
"C=CC(=O)N1CCN(c2nc(NCCCN(C)CCOCCOCCOCCOCC(=O)N[C@H](C(=O)N3C[C@H](O)C[C@H]3C(=O)N[C@@H](C)c3ccc(-c4scnc4C)cc3)C(C)(C)C)nc3c(F)c(-c4cc(O)cc5ccccc45)c(Cl)cc23)CC1 [compound 396, (2S,4R)-1-((2S)-21-((4-(4-acryloylpiperazin-1-yl)-6-chloro-8-fluoro-7-(3-hydroxynaphthalen-1-yl)quinazolin-2-yl)amino)-2-(tert-butyl)-18-methyl-4-oxo-6,9,12,15-tetraoxa-3,18-diazahenicosanoyl)-4-hydroxy-N-((S)-1-(4-(4-methylthiazol-5-yl)phenyl)ethyl)pyrrolidine-2-carboxamide]",C (Percent Degradation: C ≤ 35),C (Percent Degradation: C ≤ 35),C (Percent Degradation: C ≤ 35),≤ 35,–,–,–
"C=CC(=O)N1CCN(c2nc(O[C@H](C)CN3CCC(OCCOCC(=O)N[C@H](C(=O)N4C[C@H](O)C[C@H]4C(=O)N[C@@H](C)c4ccc(-c5scnc5C)cc4)C(C)(C)C)CC3)nc3c2CCN(c2cc(O)cc4ccccc24)C3)CC1 [compound 406, (2S,4R)-1-((S)-2-(2-(2-((1-((R)-2-((4-(4-acryloylpiperazin-1-yl)-7-(3-hydroxynaphthalen-1-yl)-5,6,7,8-tetrahydropyrido[3,4-d]pyrimidin-2-yl)oxy)propyl)piperidin-4-yl)oxy)ethoxy)acetamido)-3,3-dimethylbutanoyl)-4-hydroxy-N-((S)-1-(4-(4-methylthiazol-5-yl)phenyl)ethyl)pyrrolidine-2-carboxamide]",–,–,–,–,C (Percent Degradation: C ≤ 35),C (Percent Degradation: C ≤ 35),C (Percent Degradation: C ≤ 35)
"C=CC(=O)N1CCN(c2nc(O[C@H](C)CN3CCC(OCCOCCOCC(=O)N[C@H](C(=O)N4C[C@H](O)C[C@H]4C(=O)N[C@@H](C)c4ccc(-c5scnc5C)cc4)C(C)(C)C)CC3)nc3c2CCN(c2cc(O)cc4ccccc24)C3)CC1 [compound 407, (2S,4R)-1-((S)-2-(2-(2-(2-((1-((R)-2-((4-(4-acryloylpiperazin-1-yl)-7-(3-hydroxynaphthalen-1-yl)-5,6,7,8-tetrahydropyrido[3,4-d]pyrimidin-2-yl)oxy)propyl)piperidin-4-yl)oxy)ethoxy)ethoxy)acetamido)-3,3-dimethylbutanoyl)-4-hydroxy-N-((S)-1-(4-(4-methylthiazol-5-yl)phenyl)ethyl)pyrrolidine-2-carboxamide]",–,–,–,–,C (Percent Degradation: C ≤ 35),C (Percent Degradation: C ≤ 35),C (Percent Degradation: C ≤ 35)
C=CC(=O)N1CCN(c2nc(O[C@H](C)CN3CCC(OCCOCCOCCOCC(=O)N[C@H](C(=O)N4C[C@H](O)C[C@H]4C(=O)N[C@@H](C)c4ccc(-c5scnc5C)cc4)C(C)(C)C)CC3)nc3c2CCN(c2cc(O)cc4ccccc24)C3)CC1 [compound 408],–,–,–,–,C (Percent Degradation: C ≤ 35),C (Percent Degradation: C ≤ 35),C (Percent Degradation: C ≤ 35)
"C=CC(=O)N1CCN(c2nc(O[C@H](C)CN3CCC(OCCOCCOCCOCCOCCOCC(=O)N[C@H](C(=O)N4C[C@H](O)C[C@H]4C(=O)N[C@@H](C)c4ccc(-c5scnc5C)cc4)C(C)(C)C)CC3)nc3c2CCN(c2cc(O)cc4ccccc24)C3)CC1 [compound 410, (2S,4R)-1-((S)-20-((1-((R)-2-((4-(4-acryloylpiperazin-1-yl)-7-(3-hydroxynaphthalen-1-yl)-5,6,7,8-tetrahydropyrido[3,4-d]pyrimidin-2-yl)oxy)propyl)piperidin-4-yl)oxy)-2-(tert-butyl)-4-oxo-6,9,12,15,18-pentaoxa-3-azaicosanoyl)-4-hydroxy-N-((S)-1-(4-(4-methylthiazol-5-yl)phenyl)ethyl)pyrrolidine-2-carboxamide]",–,–,–,–,C (Percent Degradation: C ≤ 35),C (Percent Degradation: C ≤ 35),C (Percent Degradation: C ≤ 35)
C=CC(=O)N1CCN(c2nc(O[C@H](C)CN3CCC(OCCOCCNc4cccc5c4C(=O)N(C4CCC(=O)NC4=O)C5=O)CC3)nc3c2CCN(c2cc(O)cc4ccccc24)C3)CC1 (some centres unmarked) [compound 412],–,–,–,–,C (Percent Degradation: C ≤ 35),C (Percent Degradation: C ≤ 35),C (Percent Degradation: C ≤ 35)
"C=CC(=O)N1CCN(c2nc(O[C@H](C)CN3CCC(OCCOCCOCCNc4cccc5c4C(=O)N(C4CCC(=O)NC4=O)C5=O)CC3)nc3c2CCN(c2cc(O)cc4ccccc24)C3)CC1 (stereo partly drawn) [compound 413, 4-((2-(2-(2-((1-((R)-2-((4-(4-acryloylpiperazin-1-yl)-7-(3-hydroxynaphthalen-1-yl)-5,6,7,8-tetrahydropyrido[3,4-d]pyrimidin-2-yl)oxy)propyl)piperidin-4-yl)oxy)ethoxy)ethoxy)ethyl)amino)-2-(2,6-dioxopiperidin-3-yl)isoindoline-1,3-dione]",–,–,–,–,C (Percent Degradation: C ≤ 35),C (Percent Degradation: C ≤ 35),C (Percent Degradation: C ≤ 35)
C=CC(=O)N1CCN(c2nc(O[C@H](C)CN3CCC(OCCOCCOCCOCCNc4cccc5c4C(=O)N(C4CCC(=O)NC4=O)C5=O)CC3)nc3c2CCN(c2cc(O)cc4ccccc24)C3)CC1 (some centres unmarked) [compound 414],–,–,–,–,C (Percent Degradation: C ≤ 35),C (Percent Degradation: C ≤ 35),C (Percent Degradation: C ≤ 35)
"C=CC(=O)N1CCN(c2nc(O[C@H](C)CN3CCC(OCCOc4ccc5c(c4)C(=O)N(C4CCC(=O)NC4=O)C5=O)CC3)nc3c2CCN(c2cc(O)cc4ccccc24)C3)CC1 (stereo partly drawn) [compound 416, 5-(2-((1-((R)-2-((4-(4-acryloylpiperazin-1-yl)-7-(3-hydroxynaphthalen-1-yl)-5,6,7,8-tetrahydropyrido[3,4-d]pyrimidin-2-yl)oxy)propyl)piperidin-4-yl)oxy)ethoxy)-2-(2,6-dioxopiperidin-3-yl)isoindoline-1,3-dione]",–,–,–,–,C (Percent Degradation: C ≤ 35),C (Percent Degradation: C ≤ 35),C (Percent Degradation: C ≤ 35)
